From patent publication EP1053246B1, “BETA-SHEET MIMETICS AND METHODS RELATING TO THE USE THEREOF” (MOLECUMETICS, LTD., priority 1998, dated 1999)
Values belong to the compound of their own block, whether it stands above or below them.

Experiments:
t-PA = t-PA (Homo sapiens, UniProt P00750); assay: t-PA inhibition assay (Ki, Example 5); type: biochemical; settings: tissue Plasminogen Activator; read-out: Ki (M) tPA
Experimental: (§1) The reaction progress curves were recorded by reading the plates, typically 60 times with 30 second to 2 minute intervals. Initial rates were determined by unweighted nonlinear least-squares fitting to a first order reaction in GraFit (Erithacus Software Limited, London, England).

Factor XI = Factor XI (Homo sapiens, UniProt P03951); assay: Factor XI inhibition assay (Ki); type: biochemical; settings: read-out: Ki (M) Factor XI
Chain of Factor XI (P03951 388-625 limits assumed): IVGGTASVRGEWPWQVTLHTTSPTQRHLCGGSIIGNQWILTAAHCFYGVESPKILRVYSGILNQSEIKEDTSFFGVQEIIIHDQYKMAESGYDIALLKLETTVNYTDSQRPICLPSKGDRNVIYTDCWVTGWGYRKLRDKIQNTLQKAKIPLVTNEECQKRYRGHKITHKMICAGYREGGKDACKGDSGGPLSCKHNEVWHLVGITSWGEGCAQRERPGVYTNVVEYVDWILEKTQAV
Chain of Factor XI (P03951 19-387 limits assumed): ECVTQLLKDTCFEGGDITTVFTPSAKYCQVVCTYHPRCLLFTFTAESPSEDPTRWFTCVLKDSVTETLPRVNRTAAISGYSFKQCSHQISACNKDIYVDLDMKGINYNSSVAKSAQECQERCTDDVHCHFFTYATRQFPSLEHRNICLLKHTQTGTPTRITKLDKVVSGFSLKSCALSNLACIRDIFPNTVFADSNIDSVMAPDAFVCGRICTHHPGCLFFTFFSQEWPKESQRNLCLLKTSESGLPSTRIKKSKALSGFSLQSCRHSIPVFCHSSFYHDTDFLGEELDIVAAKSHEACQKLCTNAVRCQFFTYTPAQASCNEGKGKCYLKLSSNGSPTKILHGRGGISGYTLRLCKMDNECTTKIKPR

Plasmin [1] = biological target: T1, Plasmin (Bos taurus, UniProt P06868); assay: plasmin inhibition assay (Ki, Example 5); type: biochemical, bovine plasma; set-up: Plasmin: Buffer (see thrombin assay); from tissue; host or cells: bovine plasma; settings: read-out: Ki (M) Plasmin
T1 sequence (P06868 104-583 limits assumed): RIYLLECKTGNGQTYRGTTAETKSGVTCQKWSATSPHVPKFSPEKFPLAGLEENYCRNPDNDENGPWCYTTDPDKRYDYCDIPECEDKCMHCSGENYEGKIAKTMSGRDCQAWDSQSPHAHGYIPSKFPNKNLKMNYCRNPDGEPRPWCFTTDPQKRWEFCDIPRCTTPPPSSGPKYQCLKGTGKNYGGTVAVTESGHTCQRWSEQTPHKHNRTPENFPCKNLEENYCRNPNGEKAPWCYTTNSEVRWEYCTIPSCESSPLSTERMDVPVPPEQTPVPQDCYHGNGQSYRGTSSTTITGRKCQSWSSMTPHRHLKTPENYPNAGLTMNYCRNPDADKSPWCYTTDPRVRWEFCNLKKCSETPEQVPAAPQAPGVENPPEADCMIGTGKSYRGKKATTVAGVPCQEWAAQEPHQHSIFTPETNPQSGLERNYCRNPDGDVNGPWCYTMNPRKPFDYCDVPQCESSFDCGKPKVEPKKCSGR
T1 sequence (P06868 584-812 limits assumed): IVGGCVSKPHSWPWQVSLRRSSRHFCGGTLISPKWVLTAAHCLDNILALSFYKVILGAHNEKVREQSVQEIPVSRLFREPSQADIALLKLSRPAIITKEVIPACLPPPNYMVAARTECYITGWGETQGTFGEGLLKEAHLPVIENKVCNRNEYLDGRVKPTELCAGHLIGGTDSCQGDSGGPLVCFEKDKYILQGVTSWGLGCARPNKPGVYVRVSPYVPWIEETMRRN
Experimental: as §1

factor VII = biological target: T2, factor VII (Homo sapiens, UniProt P08709); assay: Factor VII inhibition assay (Ki, Example 5); type: biochemical; settings: read-out: Ki (M) Factor VII
T2 construct: human Factor VIIa (FVIIa)
T2 sequence (P08709 61-212 limits assumed): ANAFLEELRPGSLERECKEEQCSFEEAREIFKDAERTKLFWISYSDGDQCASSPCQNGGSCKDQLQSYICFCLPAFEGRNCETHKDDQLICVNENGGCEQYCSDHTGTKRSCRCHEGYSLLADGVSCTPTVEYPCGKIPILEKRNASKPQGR
T2 sequence (P08709 213-466 limits assumed): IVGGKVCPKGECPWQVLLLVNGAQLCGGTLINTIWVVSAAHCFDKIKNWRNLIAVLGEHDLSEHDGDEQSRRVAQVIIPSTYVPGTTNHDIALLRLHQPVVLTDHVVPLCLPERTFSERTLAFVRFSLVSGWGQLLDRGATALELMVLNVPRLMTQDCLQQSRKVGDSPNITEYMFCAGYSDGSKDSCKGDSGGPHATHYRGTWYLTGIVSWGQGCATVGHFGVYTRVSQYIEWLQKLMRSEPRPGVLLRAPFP
Experimental: as §1
From this concentration point seven more sequential dilutions were made for the assay.

urokinase [2] = biological target: T3, urokinase (Homo sapiens, UniProt P00749); assay: urokinase inhibition assay (Ki, Example 5); type: biochemical, human kidney; set-up: from tissue; host or cells: human kidney
thrombin [3] = biological target: T4, thrombin (Bos taurus, UniProt P00735); assay: thrombin inhibition of solid phase synthesized mimetics; type: biochemical; settings: assayed as mixtures of diastereomers; read-out: Ki as thrombin inhibitors (asterisk at compound number)
Experimental: General Procedure: The synthesis of β-strand mimetics was initiated by deprotection of Fmoc PAL resin using 25% piperidine in DMF. Following extensive washing with DMF, the resin was treated with the acid fluoride of N-Fmoc-4-aminomethylbenzoic acid, or (81), or (86) and Hunigs' base in DMF until the Kaiser test was negative. Alternatively, the Fmoc-protected thiazole- (75) or imidazole-based (77) linkers were coupled to the resin using BOP, HOBt and DIEA. In some instances Fmoc-Leu or another amino acid was attached to the resin prior to the thiazole- (75) or imidazole-based (77) linkers via the same methodology. […] Deprotection of all Fmoc-protected linkers was effected by treatment with 25% piperidine in DMF, and deprotection the Boc-protected linker (77) was effected by TMS-Cl (1 M) and phenol (3 M) in dichloromethane for 30 min. The lysinol derivative (90) was coupled to resin-bound linkers N-Fmoc-4-aminomethylbenzoic acid, (81), or (86) using PyBOP, HOBt and Hunigs' base in DMF until a negative Kaiser test was achieved. Treatment of the resin with 25% piperidine in DMF then cleaved the FMOC group. Following washing with DMF a dienoic acid was coupled to the resin-bound linkers using PyBOP, HOBt and Hunigs' base in DMF until the result of a Kaiser test was negative. […]

[4] = biological target: Activated Protein C (aPC) (Homo sapiens, UniProt P04070); assay: activated protein C inhibition assay (IC50, Example 4); type: biochemical; settings: footnote d: IC50
Chain of Activated Protein C (aPC) (P04070 43-197 limits assumed): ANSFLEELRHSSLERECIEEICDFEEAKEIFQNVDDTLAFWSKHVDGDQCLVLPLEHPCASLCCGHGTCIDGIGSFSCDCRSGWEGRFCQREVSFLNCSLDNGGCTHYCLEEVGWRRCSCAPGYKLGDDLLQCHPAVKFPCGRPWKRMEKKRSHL
Chain of Activated Protein C (aPC) (P04070 212-461 limits assumed): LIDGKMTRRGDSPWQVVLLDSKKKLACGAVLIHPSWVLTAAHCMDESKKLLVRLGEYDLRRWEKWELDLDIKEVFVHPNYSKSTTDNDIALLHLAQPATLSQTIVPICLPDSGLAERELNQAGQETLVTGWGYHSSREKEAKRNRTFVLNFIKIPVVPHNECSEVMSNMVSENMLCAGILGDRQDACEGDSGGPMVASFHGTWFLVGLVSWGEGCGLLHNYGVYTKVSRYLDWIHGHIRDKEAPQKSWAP
Experimental: (§2) All inhibition assays of this experiment were performed at room temperature in 96 well microplates using a Bio-Rad microplate reader (Model 3550). […] This solution (2.05 mM) served as the stock solution for all the inhibition assays. The hydrolysis of chromogenic substrates was monitored at 405 nm. The reaction progress curves were recorded by reading the plates typically 90 times with 30 seconds to 2 minute intervals. The initial rate were determined by unweighted nonlinear least-squares fitting to a first order reaction in GraFit.
Activated Protein C (aPC): Buffer was the same as used in thrombin assay. […] Dilutions of structure (13b) were the same as in urokinase assay.

thrombin [5] = biological target: T4, thrombin; assay: thrombin inhibition assay (IC50, Example 4); type: biochemical, bovine; settings: footnote d: IC50
urokinase [6] = biological target: T3, urokinase; assay: urokinase inhibition assay (IC50, Example 4); type: biochemical; set-up: purchased Sigma; settings: footnote d: IC50
Experimental: as §2
In the urokinase assay, buffer was pH 8.8 0.05 M Tris and 0.05 M NaCl in deionized water. S-2444 (from Sigma), pyroGlu-Gly-Arg-pNA at 0.5 mM in water was utilized as substrate. The same dilution procedure was used as for Factor VII and Factor X. Assay protocol is the same as for thrombin except 18.5 nM of human urokinase (from Sigma) was utilized.

bovine trypsin = biological target: T5, bovine trypsin (Bos taurus, UniProt P00760); assay: trypsin inhibition assay (IC50, Example 4); type: biochemical; settings: footnote d: IC50
T5 construct: purchased Sigma
T5 sequence (P00760 24-246): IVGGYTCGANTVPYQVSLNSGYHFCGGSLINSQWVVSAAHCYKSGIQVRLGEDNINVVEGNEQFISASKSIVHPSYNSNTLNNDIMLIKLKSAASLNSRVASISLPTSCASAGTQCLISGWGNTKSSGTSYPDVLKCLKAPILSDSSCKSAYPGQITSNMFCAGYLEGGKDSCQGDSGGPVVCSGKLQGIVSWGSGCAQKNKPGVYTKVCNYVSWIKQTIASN
Experimental: as §2
In the trypsin assay, pH 7.8 Tris (0.10 M Tris and 0.02 M CaCl2) was utilized as the buffer. BAPNA (from Sigma) was used at 1 mg/ml in 1% DMSO (v/v) deionized water solution as substrate. The same dilutions of structure (13b) were made as for Factor VII assay.

bovine factor Xa = biological target: T6, bovine factor Xa (Bos taurus, UniProt P00743); assay: Factor X inhibition assay (IC50, Example 4); type: biochemical; settings: footnote d: IC50; footnote e: bovine plasma; read-out: IC50 Factor X
T6 construct: bovine factor Xa (from Sigma); purchased Sigma
T6 sequence (P00743 41-180 limits assumed): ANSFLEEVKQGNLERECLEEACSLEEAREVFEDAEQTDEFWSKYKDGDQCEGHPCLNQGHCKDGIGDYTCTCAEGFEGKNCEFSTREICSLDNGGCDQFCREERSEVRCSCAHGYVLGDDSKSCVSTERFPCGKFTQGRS
T6 sequence (P00743 234-492 limits assumed): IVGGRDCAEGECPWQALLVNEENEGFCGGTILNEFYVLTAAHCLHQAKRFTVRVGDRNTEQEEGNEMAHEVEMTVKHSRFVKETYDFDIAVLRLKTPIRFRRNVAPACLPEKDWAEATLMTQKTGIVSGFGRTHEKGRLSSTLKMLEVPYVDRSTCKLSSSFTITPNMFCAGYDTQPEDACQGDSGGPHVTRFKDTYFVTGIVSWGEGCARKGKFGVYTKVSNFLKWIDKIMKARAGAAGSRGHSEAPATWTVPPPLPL
Experimental: as §2
In the Factor X assay, buffer and substrate are the same as used for thrombin assay. A 1:100 dilution was made into pH 8.4 Tris buffer to serve as the first point. Seven dilutions with a dilution factor of 2 were made. The assay protocol is the same as for thrombin except 25 nM of bovine factor Xa (from Sigma) in pH 8.4 Tris buffer was used instead of thrombin.

FVIIa and TF complex = biological target: T7, FVIIa and TF complex (Homo sapiens, UniProt P08709); assay: Factor VII inhibition assay (IC50, Example 4); type: biochemical; settings: footnote d: IC50
T7 construct: 50 µl of 16 nM FVIIa and TF complex solution
T7 sequence (P13726 33-295 partner, one chain of several): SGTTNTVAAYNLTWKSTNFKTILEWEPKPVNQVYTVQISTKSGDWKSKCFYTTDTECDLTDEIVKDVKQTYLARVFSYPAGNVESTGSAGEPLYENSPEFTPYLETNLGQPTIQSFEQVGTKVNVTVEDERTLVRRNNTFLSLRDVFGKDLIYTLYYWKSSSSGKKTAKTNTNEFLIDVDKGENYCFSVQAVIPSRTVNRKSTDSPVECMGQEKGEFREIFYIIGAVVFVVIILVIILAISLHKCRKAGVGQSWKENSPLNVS
Experimental: as §2
In the Factor VII assay, S-2288 (from Pharmacia), D-Ile-Pro-Arg-pNA was used at […] in deionized water as substrate. […] This dilution served as the first point of the inhibitor (20 µM). From this concentration point 6 more sequential dilutions were made with a dilution factor of 2. 50 µl of 16 nM FVIIa and TF complex solution and 40 µl of the inhibitor solutions were added into each well, the mixtures were incubated for 20 minutes before 10 µl of 20 mM S-2288 was added.

Plasmin [7] = biological target: T1, Plasmin; assay: plasmin inhibition assay (IC50, Example 4); type: biochemical; set-up: Plasmin: Buffer (see thrombin assay); settings: footnote d: IC50
Experimental: as §2
For dilutions of structure (13b) (see urokinase assay).

[8] = biological target: Tissue Plasminogen Activator (t-PA) (Homo sapiens, UniProt P00750); assay: t-PA inhibition assay (IC50, Example 4); type: biochemical; settings: footnote d: IC50
Chain of Tissue Plasminogen Activator (t-PA) (P00750 36-562): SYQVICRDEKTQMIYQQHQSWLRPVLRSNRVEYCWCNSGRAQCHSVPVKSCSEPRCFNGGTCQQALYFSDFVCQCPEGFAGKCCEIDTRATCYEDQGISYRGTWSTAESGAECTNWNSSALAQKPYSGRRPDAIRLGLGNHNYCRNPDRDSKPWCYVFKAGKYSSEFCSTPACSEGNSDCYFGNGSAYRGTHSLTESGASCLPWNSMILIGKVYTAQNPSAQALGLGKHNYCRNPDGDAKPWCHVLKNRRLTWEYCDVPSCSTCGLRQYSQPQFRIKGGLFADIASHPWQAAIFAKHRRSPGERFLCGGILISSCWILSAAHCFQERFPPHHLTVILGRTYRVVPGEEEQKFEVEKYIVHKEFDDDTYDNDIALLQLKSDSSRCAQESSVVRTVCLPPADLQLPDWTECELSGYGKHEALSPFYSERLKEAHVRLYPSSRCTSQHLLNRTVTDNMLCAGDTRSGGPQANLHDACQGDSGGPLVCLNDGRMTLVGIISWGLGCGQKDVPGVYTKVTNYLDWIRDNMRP
Experimental: as §2

Chain of t-PA (P00750 36-562): as above

Ki (t-PA): 4.95e-07 M
Ki (Factor XI): 2.7e-08 M
Ki (Plasmin [1]): 4.15e-07 M
Ki (factor VII): 2.7e-07 M
Ki (urokinase [2]): 600 nM
SMILES: N=C(N)NCCCC(NC(=O)C1CCN2CCC(N)(Cc3ccccc3)C(=O)N12)C(=O)c1nc2ccccc2s1 (centres unmarked) [Structure (20b)]

Ki (thrombin [3]): < 10 nM
SMILES: CC/C=C\CCC1C=CC(C(=O)NC(CCCCN)C(=O)C(=O)NCCc2ccc(C(N)=O)cc2)n2c(=O)n(CC(c3ccccc3)c3ccccc3)c(=O)n21 (centres unmarked) [compound 106]

IC50 [4]: 528 nM
IC50 (thrombin [5]): 1.2 nM
IC50 (urokinase [6]): 927 nM
IC50 (bovine trypsin): 160 nM
IC50 (bovine factor Xa): 386 nM
IC50 (FVIIa and TF complex): 140 nM
IC50 (Plasmin [7]): 978 nM
IC50 [8]: 632 nM
SMILES: N=C(N)NCCC[C@H](NC(=O)[C@@H]1CCN2CC[C@@](N)(Cc3ccccc3)C(=O)N12)C(=O)CCl [Structure (13b)]
